Data taken from patent US12492188B2, “1H-benzo[D]imidazole derivatives as TLR9 inhibitors for the treatment of fibrosis” (BRISTOL-MYERS SQUIBB COMPANY, priority 2020, dated 2025).
Where two headings read alike, the source gives them in different places.

Key:
Format in all cases: cell-based
human TLR7 = target: T1, human TLR7 (Homo sapiens, UniProt Q9NYK1); assay: TLR7 inhibition reporter assay (HEK-Blue cells, secreted embryonic alkaline phosphatase reporter); conditions: HEK-Blue cells overexpressing human TLR7, stimulated with gardiquimod 7.5 μM; read-out: TLR 7 IC50
T1 construct: host or cells: HEK-Blue cells (HEK293-derived reporter line)
T1 sequence (Q9NYK1 27-1049): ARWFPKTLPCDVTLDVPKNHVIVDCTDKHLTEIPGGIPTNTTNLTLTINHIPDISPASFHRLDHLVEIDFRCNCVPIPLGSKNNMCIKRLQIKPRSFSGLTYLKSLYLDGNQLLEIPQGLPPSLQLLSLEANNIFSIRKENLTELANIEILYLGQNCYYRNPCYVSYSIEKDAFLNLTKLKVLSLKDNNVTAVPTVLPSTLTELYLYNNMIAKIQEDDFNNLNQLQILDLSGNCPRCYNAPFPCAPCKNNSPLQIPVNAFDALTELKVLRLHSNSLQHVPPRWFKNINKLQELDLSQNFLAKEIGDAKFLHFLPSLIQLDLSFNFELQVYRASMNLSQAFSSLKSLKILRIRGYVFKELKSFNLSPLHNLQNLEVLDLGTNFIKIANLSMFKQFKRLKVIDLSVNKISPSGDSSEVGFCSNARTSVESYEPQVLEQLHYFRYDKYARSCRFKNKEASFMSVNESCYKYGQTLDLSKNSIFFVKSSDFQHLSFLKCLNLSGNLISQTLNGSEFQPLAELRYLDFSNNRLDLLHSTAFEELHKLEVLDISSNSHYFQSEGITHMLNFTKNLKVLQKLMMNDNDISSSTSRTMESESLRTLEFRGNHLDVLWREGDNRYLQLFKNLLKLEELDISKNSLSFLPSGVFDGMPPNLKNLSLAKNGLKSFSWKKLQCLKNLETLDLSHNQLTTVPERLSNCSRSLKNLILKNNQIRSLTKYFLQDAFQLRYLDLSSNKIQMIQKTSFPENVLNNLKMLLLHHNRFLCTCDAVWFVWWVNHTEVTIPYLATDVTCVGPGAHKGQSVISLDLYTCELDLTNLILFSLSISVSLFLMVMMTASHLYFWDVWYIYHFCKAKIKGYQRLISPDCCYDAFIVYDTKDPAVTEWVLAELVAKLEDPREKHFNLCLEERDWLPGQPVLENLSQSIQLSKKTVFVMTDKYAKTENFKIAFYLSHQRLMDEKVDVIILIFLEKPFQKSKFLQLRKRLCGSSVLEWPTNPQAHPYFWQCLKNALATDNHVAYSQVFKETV
Summary of the method: (§1)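 Inhibitors are tested in dose response (0.05 nM–50 μM) on HEK-Blue reporter cells expressing human TLR7, TLR8 or TLR9. After 30 min at room temperature, each line is stimulated with its own agonist (gardiquimod 7.5 μM, R848 15.9 μM or ODN2006 5 nM, final) and SEAP is measured 22 h later.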

human TLR8 = target: T2, human TLR8 (Homo sapiens, UniProt Q9NR97); assay: TLR8 inhibition reporter assay (HEK-Blue cells, secreted embryonic alkaline phosphatase reporter); conditions: HEK-Blue cells overexpressing human TLR8, stimulated with R848 15.9 μM; read-out: TLR 8 IC50
T2 construct: host or cells: HEK-Blue cells (HEK293-derived reporter line)
T2 sequence (Q9NR97 27-1041): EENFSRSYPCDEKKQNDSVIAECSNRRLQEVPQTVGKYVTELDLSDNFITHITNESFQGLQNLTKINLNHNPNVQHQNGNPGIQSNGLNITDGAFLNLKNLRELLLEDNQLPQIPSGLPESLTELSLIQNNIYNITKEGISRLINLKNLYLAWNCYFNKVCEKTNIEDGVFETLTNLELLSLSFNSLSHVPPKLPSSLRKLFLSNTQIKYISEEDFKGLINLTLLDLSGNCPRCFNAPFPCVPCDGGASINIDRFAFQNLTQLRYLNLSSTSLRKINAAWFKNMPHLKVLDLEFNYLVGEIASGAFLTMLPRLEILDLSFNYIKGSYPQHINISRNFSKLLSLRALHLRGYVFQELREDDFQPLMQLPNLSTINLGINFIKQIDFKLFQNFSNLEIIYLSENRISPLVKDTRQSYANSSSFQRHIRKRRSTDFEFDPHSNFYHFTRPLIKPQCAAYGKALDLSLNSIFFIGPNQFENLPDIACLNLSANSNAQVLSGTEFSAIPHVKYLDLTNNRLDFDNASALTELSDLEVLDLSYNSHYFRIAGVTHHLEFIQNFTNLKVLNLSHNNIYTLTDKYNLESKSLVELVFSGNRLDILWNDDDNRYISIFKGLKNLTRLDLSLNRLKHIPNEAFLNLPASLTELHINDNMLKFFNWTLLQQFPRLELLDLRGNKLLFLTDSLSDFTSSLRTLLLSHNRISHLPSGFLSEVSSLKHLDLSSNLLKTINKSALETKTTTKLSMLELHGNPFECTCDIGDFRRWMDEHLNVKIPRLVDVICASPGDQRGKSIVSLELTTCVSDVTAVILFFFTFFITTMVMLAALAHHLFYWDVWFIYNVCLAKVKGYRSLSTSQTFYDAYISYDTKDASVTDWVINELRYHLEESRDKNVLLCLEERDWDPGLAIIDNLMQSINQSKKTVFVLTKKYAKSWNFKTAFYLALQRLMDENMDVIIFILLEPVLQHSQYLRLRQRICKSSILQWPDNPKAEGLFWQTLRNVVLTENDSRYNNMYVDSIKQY
Summary of the method: as §1

human TLR9 = target: T3, human TLR9 (Homo sapiens, UniProt Q9NR96); assay: TLR9 inhibition reporter assay (HEK-Blue cells, secreted embryonic alkaline phosphatase reporter)
T3 construct: host or cells: HEK-Blue cells (HEK293-derived reporter line)
T3 sequence (Q9NR96 26-1032): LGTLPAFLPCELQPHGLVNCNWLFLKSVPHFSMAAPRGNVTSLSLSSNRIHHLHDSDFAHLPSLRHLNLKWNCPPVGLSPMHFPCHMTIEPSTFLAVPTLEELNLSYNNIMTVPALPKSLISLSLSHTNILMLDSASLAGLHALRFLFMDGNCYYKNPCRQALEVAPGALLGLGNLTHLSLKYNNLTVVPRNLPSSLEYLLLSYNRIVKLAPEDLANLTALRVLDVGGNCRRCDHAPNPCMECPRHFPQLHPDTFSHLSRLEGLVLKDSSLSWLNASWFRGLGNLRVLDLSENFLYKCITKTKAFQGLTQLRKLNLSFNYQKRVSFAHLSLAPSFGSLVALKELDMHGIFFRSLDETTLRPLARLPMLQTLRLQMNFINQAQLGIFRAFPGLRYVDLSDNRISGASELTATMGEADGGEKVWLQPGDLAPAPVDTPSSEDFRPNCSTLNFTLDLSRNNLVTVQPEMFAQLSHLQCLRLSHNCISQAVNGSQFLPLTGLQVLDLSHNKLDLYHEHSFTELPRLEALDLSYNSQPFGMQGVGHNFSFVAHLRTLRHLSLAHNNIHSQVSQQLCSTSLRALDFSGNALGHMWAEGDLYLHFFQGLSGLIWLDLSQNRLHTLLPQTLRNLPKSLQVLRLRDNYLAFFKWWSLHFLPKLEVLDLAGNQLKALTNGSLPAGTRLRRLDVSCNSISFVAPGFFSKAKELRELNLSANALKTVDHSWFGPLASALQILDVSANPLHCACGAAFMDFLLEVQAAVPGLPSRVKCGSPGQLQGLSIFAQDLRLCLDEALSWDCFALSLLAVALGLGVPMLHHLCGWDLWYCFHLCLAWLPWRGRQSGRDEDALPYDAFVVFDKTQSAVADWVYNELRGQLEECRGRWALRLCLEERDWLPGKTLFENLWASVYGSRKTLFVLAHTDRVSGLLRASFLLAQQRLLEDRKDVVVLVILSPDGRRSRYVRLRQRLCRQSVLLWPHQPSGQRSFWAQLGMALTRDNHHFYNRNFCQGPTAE
Summary of the method: as §1

[1] = HEK-Blue cells overexpressing human TLR9, stimulated with ODN2006 5 nM, 22 hour incubation, reporter readout
[2] = HEK-Blue cells overexpressing human TLR9, stimulated with ODN2006 5 nM, read-out: TLR 9 IC50

IC50 (human TLR7)	IC50 (human TLR8)	IC50 (human TLR9; [1])	IC50 (human TLR9; [2])	IC50 (human TLR9)	IC50 (human TLR9; HEK-Blue human TLR9 reporter cells)	Compound
19400 nM	> 50000 nM	100 nM	104 nM	–	–	CC(C)N1CCC(N2CCC(c3cc(F)c4c(c3)nc(-c3ccc(S(C)(=O)=O)cc3)n4C)CC2)CC1 [Example 91, 7-fluoro-5-(1′-isopropyl-[1,4′-bipiperidin]-4-yl)-1-methyl-2-(4-(methylsulfonyl)phenyl)-1H-benzo[d]imidazole]
> 50000 nM	> 50000 nM	–	87 nM	87 nM	–	Cn1c(-c2ccc(S(C)(=O)=O)cc2)nc2cc(F)c(C3CCN(C4CC5CCC(C4)N5C4CCOCC4)CC3)cc21 (stereo not shown) [Example 237, 5-fluoro-1-methyl-2-(4-(methylsulfonyl)phenyl)-6-(1-(8-(tetrahydro-2H-pyran-4-yl)-8-azabicyclo[3.2.1]octan-3-yl)piperidin-4-yl)-1H-benzo[d]imidazole]
25600 nM	> 50000 nM	–	75 nM	75 nM	–	COCCN1C2CCC1CC(N1CCC(c3ccc4c(nc(-c5ccc(S(C)(=O)=O)cc5)n4C)c3F)CC1)C2 (single isomer, unassigned) [Example 199, 4-fluoro-5-(1-(8-(2-methoxyethyl)-8-azabicyclo[3.2.1]octan-3-yl)piperidin-4-yl)-1-methyl-2-(4-(methylsulfonyl)phenyl)-1H-benzo[d]imidazole]
1900 nM	> 50000 nM	–	48 nM	–	48 nM	COCCN1CCCC(N2CCC(c3cc(F)c4nc(-c5ccc(S(C)(=O)=O)cc5)n(C)c4c3)CC2)CC1 (single isomer, unassigned) [Example 302, 4-fluoro-6-(1-(1-(2-methoxyethyl)azepan-4-yl)piperidin-4-yl)-1-methyl-2-(4-(methylsulfonyl)phenyl)-1H-benzo[d]imidazole]
24000 nM	> 50000 nM	260 nM	25.8 nM	–	–	Cn1c(-c2ccc(S(C)(=O)=O)cc2)nc2c(F)cc(C3CCN(C4CCCN(C5COC5)CC4)CC3)cc21 (single isomer, unassigned) [Example 108, 4-fluoro-1-methyl-2-(4-(methylsulfonyl)phenyl)-6-(1-(1-(oxetan-3-yl)azepan-4-yl)piperidin-4-yl)-1H-benzo[d]imidazole]
> 50000 nM	> 50000 nM	950 nM	–	–	–	CC(C)N1CCC(N2CCC(c3ccc4nc(-c5ccc(S(C)(=O)=O)cc5)[nH]c4c3F)CC2)CC1 [Example 87, 7-fluoro-6-(1′-isopropyl-[1,4′-bipiperidin]-4-yl)-2-(4-(methylsulfonyl)phenyl)-1H-benzo[d]imidazole]

More lines, now with the values behind:

Compound	IC50 (human TLR7)	IC50 (human TLR8)	IC50 (human TLR9; [1])	IC50 (human TLR9; [2])	IC50 (human TLR9)	IC50 (human TLR9; HEK-Blue human TLR9 reporter cells)
COc1ccc(-c2nc3ccc(C4CCN(C5CCN(C(C)C)CC5)CC4)cc3n2C(C)C)cc1OC [Example 3, 2-(3,4-dimethoxyphenyl)-1-isopropyl-6-(1′-isopropyl-[1,4′-bipiperidin]-4-yl)-1H-benzo[d]imidazole]	280 nM	> 50000 nM	170 nM	169 nM	–	–
Cn1c(-c2ccc(S(C)(=O)=O)cc2)nc2ccc(C3CCN(C4CC5CCC(C4)N5C4COC4)CC3)c(F)c21 (stereo not shown) [Example 273, 7-fluoro-1-methyl-2-(4-(methylsulfonyl)phenyl)-6-(1-(8-(oxetan-3-yl)-8-azabicyclo[3.2.1]octan-3-yl)piperidin-4-yl)-1H-benzo[d]imidazole]	7500 nM	> 50000 nM	–	303 nM	300 nM	–
CS(=O)(=O)c1ccc(-c2nc3ccc(C4CCN(C5CCN(C6CC6)CC5)CC4)c(F)c3[nH]2)cc1 [Example 178, 6-(1′-cyclopropyl-[1,4′-bipiperidin]-4-yl)-7-fluoro-2-(4-(methylsulfonyl)phenyl)-1H-benzo[d]imidazole]	> 50000 nM	> 50000 nM	–	238 nM	240 nM	–
Cc1cc(-c2ccc(N3CCC(N4CCCC4)CC3)cc2)cc2c1nc(-c1ccc(S(C)(=O)=O)cc1)n2C [Example 367, 1,4-dimethyl-2-(4-(methylsulfonyl)phenyl)-6-(4-(4-(pyrrolidin-1-yl)piperidin-1-yl)phenyl)-1H-benzo[d]imidazole]	2300 nM	1900 nM	510 nM	508 nM	–	–
COc1ccc(-c2nc3ccc(C4CCN(C5CCN(C6CC6)CC5)CC4)cc3n2C(C)C)cc1OC [Example 31, 6-(1′-cyclopropyl-[1,4′-bipiperidin]-4-yl)-2-(3,4-dimethoxyphenyl)-1-isopropyl-1H-benzo[d]imidazole]	> 50000 nM	> 50000 nM	750 nM	749 nM	–	–
Cc1cc(-c2ccc(CN3CC4(C3)CN(CC(C)C)C4)cc2)cc2c1nc(-c1ccc(S(C)(=O)=O)cc1)n2C [Example 371, 6-(4-((6-isobutyl-2,6-diazaspiro[3.3]heptan-2-yl)methyl)phenyl)-1,4-dimethyl-2-(4-(methylsulfonyl)phenyl)-1H-benzo[d]imidazole]	1800 nM	6800 nM	55 nM	–	–	–
